How the values were obtained:
Type in all cases: in vivo
[1] = test system: Amaranthus retoflexus (AMARE); test: Pre-emergence herbicidal glasshouse test; conditions: 250 g/ha, sprayed after one day cultivation, evaluated after 13 days
Procedure: (§1) Seeds of a variety of test species are sown in standard soil in pots Amaranthus pa/meri (AMAPA), Amaranthus retoflexus (AMARE), Echinochloa crus-gali (ECHCG), Ipomoea hederacea (IPOHE), Setaria faberi (SETFA). After cultivation for one day (pre-emergence) or after 8 days cultivation (post-emergence) under controlled conditions in a glasshouse (at 24/16° C., day/night; 14 hours light; 65% humidity), the plants are sprayed with an aqueous spray solution derived from the formulation of the technical active ingredient in acetone/water (50:50) solution containing 0.5% Tween 20 (polyoxyethelyene sorbitan monolaurate, CAS RN 9005-64-5). Compounds are applied at 250 g/ha unless otherwise stated. The test plants are then grown in a glasshouse under controlled conditions in a glasshouse (at 24/16° C., day/night; 14 hours light; 65% humidity) and watered twice daily. After 13 days for pre and post-emergence, the test is evaluated for the percentage damage caused to the plant. The biological activities are shown in the following table on a five-point scale (5=81-100%; 4=61-80%; 3=41-60%; 2=21-40%; 1=0-20%).

[2] = test system: Amaranthus pa/meri (AMAPA); test: Pre-emergence herbicidal glasshouse test; conditions: 250 g/ha, sprayed after one day cultivation, evaluated after 13 days
Procedure: as §1

[3] = test system: Echinochloa crus-gali (ECHCG); test: Pre-emergence herbicidal glasshouse test; conditions: 250 g/ha, sprayed after one day cultivation, evaluated after 13 days
Procedure: as §1

Setaria faberi (SETFA) [4] = test: Pre-emergence herbicidal glasshouse test; conditions: 250 g/ha, sprayed after one day cultivation, evaluated after 13 days
Procedure: as §1

[5] = test system: Ipomoea hederacea (IPOHE); test: Pre-emergence herbicidal glasshouse test; conditions: 250 g/ha, sprayed after one day cultivation, evaluated after 13 days
Procedure: as §1

[6] = test system: Amaranthus retoflexus (AMARE); test: Post-emergence herbicidal glasshouse test; conditions: 250 g/ha, sprayed after 8 days cultivation, evaluated after 13 days
Procedure: as §1

[7] = test system: Amaranthus pa/meri (AMAPA); test: Post-emergence herbicidal glasshouse test; conditions: 250 g/ha, sprayed after 8 days cultivation, evaluated after 13 days
Procedure: as §1

[8] = test system: Echinochloa crus-gali (ECHCG); test: Post-emergence herbicidal glasshouse test; conditions: 250 g/ha, sprayed after 8 days cultivation, evaluated after 13 days
Procedure: as §1

Setaria faberi (SETFA) [9] = test: Post-emergence herbicidal glasshouse test; conditions: 250 g/ha, sprayed after 8 days cultivation, evaluated after 13 days
Procedure: as §1

[10] = test system: Ipomoea hederacea (IPOHE); test: Post-emergence herbicidal glasshouse test; conditions: 250 g/ha, sprayed after 8 days cultivation, evaluated after 13 days
Procedure: as §1

SMILES | percentage damage caused to the plant, AMARE [1] | percentage damage caused to the plant, AMAPA [2] | percentage damage caused to the plant, ECHCG [3] | percentage damage caused to the plant, SETFA (Setaria faberi (SETFA) [4]) | percentage damage caused to the plant, IPOHE [5] | percentage damage caused to the plant, AMARE [6] | percentage damage caused to the plant, AMAPA [7] | percentage damage caused to the plant, ECHCG [8] | percentage damage caused to the plant, SETFA (Setaria faberi (SETFA) [9]) | percentage damage caused to the plant, IPOHE [10]
CC(C)Cc1nc(C(F)(F)F)cn1Cc1ncc(Cl)cn1 [Compound 1.021] | 3 (3=41-60%) | 5 (5=81-100%) | 1 (1=0-20%) | 1 (1=0-20%) | 4 (4=61-80%) | 3 (3=41-60%) | 3 (3=41-60%) | 1 (1=0-20%) | 1 (1=0-20%) | 3 (3=41-60%)
FC(F)c1ccn(CCc2nc(C(F)(F)F)cn2Cc2ncc(Cl)cn2)n1 [Compound 1.032] | 5 (5=81-100%) | 5 (5=81-100%) | 5 (5=81-100%) | 5 (5=81-100%) | 5 (5=81-100%) | 5 (5=81-100%) | 4 (4=61-80%) | 3 (3=41-60%) | 3 (3=41-60%) | 4 (4=61-80%)
CCCCc1nc(C(F)(F)F)cn1Cc1ncc(Cl)cn1 [Compound 1.026] | 5 (5=81-100%) | 5 (5=81-100%) | 3 (3=41-60%) | 5 (5=81-100%) | 3 (3=41-60%) | 5 (5=81-100%) | 5 (5=81-100%) | 2 (2=21-40%) | 2 (2=21-40%) | 4 (4=61-80%)
FC(F)(F)CCCc1nc(Br)cn1Cc1ncc(Cl)cn1 [Compound 1.003, 2-[[4-bromo-2-(4,4,4-trifluorobutyl)imidazol-1-yl]methyl]-5-chloro-pyrimidine] | 1 (1=0-20%) | 1 (1=0-20%) | 1 (1=0-20%) | 1 (1=0-20%) | 2 (2=21-40%) | 2 (2=21-40%) | 2 (2=21-40%) | 1 (1=0-20%) | 1 (1=0-20%) | 2 (2=21-40%)
CCCCCc1nc(C(F)(F)F)cn1Cc1ncc(Cl)cn1 [Compound 1.019] | 5 (5=81-100%) | 5 (5=81-100%) | 5 (5=81-100%) | – | 1 (1=0-20%) | 2 (2=21-40%) | 2 (2=21-40%) | 3 (3=41-60%) | – | 1 (1=0-20%)
CCCCc1nc(C(F)(F)F)cn1Cc1ncc(F)cn1 [Compound 1.077, 2-[[2-butyl-4-(trifluoromethyl)imidazol-1-yl]methyl]-5-fluoro-pyrimidine] | 5 (5=81-100%) | 5 (5=81-100%) | 1 (1=0-20%) | – | 5 (5=81-100%) | 3 (3=41-60%) | 2 (2=21-40%) | 1 (1=0-20%) | – | 3 (3=41-60%)
FC(F)(F)c1cn(Cc2ncc(Cl)cn2)c(CCCCl)n1 [Compound 1.051, 5-chloro-2-[[2-(3-chloropropyl)-4-(trifluoromethyl)imidazol-1-yl]methyl]pyrimidine] | 5 (5=81-100%) | 5 (5=81-100%) | 2 (2=21-40%) | – | 5 (5=81-100%) | 5 (5=81-100%) | 4 (4=61-80%) | 4 (4=61-80%) | – | 4 (4=61-80%)
FC(F)(F)c1cn(Cc2ncc(Cl)cn2)c(CCC=NOCC2CC2)n1 (single isomer, unassigned) [Compound 1.006] | 5 (5=81-100%) | 2 (2=21-40%) | 1 (1=0-20%) | – | 1 (1=0-20%) | 3 (3=41-60%) | 3 (3=41-60%) | 1 (1=0-20%) | – | 2 (2=21-40%)
CCCCc1nc(C=NOC)cn1Cc1ncc(Cl)cn1 (single isomer, unassigned) [Compound 1.076, 1-[2-butyl-1-[(5-chloropyrimidin-2-yl)methyl]imidazol-4-yl]-N-methoxy-methanimine] | 1 (1=0-20%) | 1 (1=0-20%) | 1 (1=0-20%) | – | 1 (1=0-20%) | 1 (1=0-20%) | 1 (1=0-20%) | 1 (1=0-20%) | – | 1 (1=0-20%)
CCCCCc1nc(C(F)(F)F)cn1Cc1ncc(C)cn1 [Compound 1.016] | 5 (5=81-100%) | 5 (5=81-100%) | 1 (1=0-20%) | – | 2 (2=21-40%) | 2 (2=21-40%) | 1 (1=0-20%) | 1 (1=0-20%) | – | 2 (2=21-40%)
O=CCCc1nc(C(F)(F)F)cn1Cc1ncc(Cl)cn1 [Compound 1.013, 3-[1-[(5-chloropyrimidin-2-yl)methyl]-4-(trifluoromethyl)imidazol-2-yl]propanal] | 5 (5=81-100%) | 2 (2=21-40%) | 1 (1=0-20%) | – | 1 (1=0-20%) | 1 (1=0-20%) | 1 (1=0-20%) | 1 (1=0-20%) | – | 1 (1=0-20%)
ON=CCCc1nc(C(F)(F)F)cn1Cc1ncc(Cl)cn1 (single isomer, unassigned) [Compound 1.005] | 1 (1=0-20%) | 1 (1=0-20%) | 1 (1=0-20%) | – | 1 (1=0-20%) | 3 (3=41-60%) | 3 (3=41-60%) | 1 (1=0-20%) | – | 2 (2=21-40%)
CCCCc1nc(C(F)(F)F)cn1Cc1ncc(Cl)cc1F [Compound 1.058] | 5 (5=81-100%) | 5 (5=81-100%) | 5 (5=81-100%) | – | 5 (5=81-100%) | 4 (4=61-80%) | 3 (3=41-60%) | 4 (4=61-80%) | – | 4 (4=61-80%)
CCCCc1nc(C(F)(F)F)cn1Cc1ccc(Cl)cn1 [Compound 1.081] | 2 (2=21-40%) | 2 (2=21-40%) | 1 (1=0-20%) | – | 1 (1=0-20%) | 3 (3=41-60%) | 3 (3=41-60%) | 1 (1=0-20%) | – | 2 (2=21-40%)
N#CCCc1nc(C(F)(F)F)cn1Cc1ncc(Cl)cn1 [Compound 1.029] | 5 (5=81-100%) | 5 (5=81-100%) | 2 (2=21-40%) | – | 5 (5=81-100%) | 4 (4=61-80%) | 4 (4=61-80%) | 1 (1=0-20%) | – | 3 (3=41-60%)

From patent publication US20260035359A1, “HERBICIDAL IMIDAZOLE COMPOUNDS” (SYNGENTA CROP PROTECTION AG, priority 2022, published 2026)
